Experimental data from ChEMBL document CHEMBL3137667, “[Drug-induced liver injury; fourteenth updated edition of the bibliographic database of liver injuries and related drugs]” (Gastroenterol Clin Biol, 2004).

Columns and labels:
[1] = Highest frequency of moderate liver toxicity observed during clinical trials, expressed as a percentage. [column '% BIOL' in source]; settings: human
[2] = Highest frequency of acute liver toxicity observed during clinical trials, expressed as a percentage. [column '% AIGUE' in source]; settings: human
[3] = Presence of at least one case with successful reintroduction. [column 'REINT' in source]; settings: human
[4] = Times to onset, minimal and maximal, observed in the indexed observations. [column 'DELAI' in source]; settings: human
[5] = human, serum
[6] = human, serum; remark: listed apart in the source
[7] = human
[8] = human; remark: listed apart in the source
[9] = human; remark: listed apart in the source
[10] = human, serum, 4383 h
[11] = human; remark: listed apart in the source
[12] = human; remark: listed apart in the source
[13] = human; remark: listed apart in the source
[14] = human; remark: listed apart in the source
[15] = human; remark: listed apart in the source
[16] = human; remark: listed apart in the source
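For Hepatotoxicity (association with vascular disease) in this document: count of indexed literature references reporting vascular liver injury in humans, e.g. peliosis hepatitis, hepatic veno-occlusive disease or Budd-Chiari syndrome.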
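For Hepatotoxicity (benign tumour) in this document: value is a count of indexed literature references citing a benign tumour confirmed by histopathology.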
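For Hepatotoxicity (choleostasis) in this document: human cholestatic liver injury, shown by histopathology or by peak ALT or AST elevation over alkaline phosphatase ratio below 2, value counts indexed literature reports.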
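For Hepatotoxicity (chronic liver disease) in this document: chronic liver injury confirmed by histopathology or persistently raised serum aminotransferase activity beyond 6 months, value given as the count of indexed literature references.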
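For Hepatotoxicity (cirrhosis) in this document: value is a count of indexed literature references reporting cirrhosis confirmed by histopathology.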
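For Hepatotoxicity (cytolytic) in this document: human cytolytic liver injury, shown by histopathology or by a ratio above 5 of peak ALT or AST elevation to alkaline phosphatase elevation, value counts indexed references.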
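For Hepatotoxicity (granulomatous hepatitis) in this document: value is a count of indexed literature references reporting granulomatous liver disease confirmed by histopathology.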
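For Hepatotoxicity (malignant tumour) in this document: malignant tumour confirmed by histopathology, value gives the count of indexed literature references reporting it.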
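For Hepatotoxicity (severe hepatitis) in this document: human clinical data: severe hepatitis, meaning potentially life-threatening liver failure or clinically observed cases, the value counts how many indexed literature references report it.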
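For Hepatotoxicity (steatosis) in this document: steatosis confirmed by histopathology, value is the count of indexed references.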

| Compound | Hepatotoxicity (moderate) [1] [%] | Hepatotoxicity (acute) [2] [%] | Hepatotoxicity (successful reintroduction) [3] | Hepatotoxicity (time to onset) [4] | Hepatotoxicity (moderate) [5] | Hepatotoxicity (acute) [6] | Hepatotoxicity (cytolytic) [7] | Hepatotoxicity (choleostasis) [8] | Hepatotoxicity (severe hepatitis) [9] | Hepatotoxicity (chronic liver disease) [10] | Hepatotoxicity (cirrhosis) [11] | Hepatotoxicity (granulomatous hepatitis) [12] | Hepatotoxicity (association with vascular disease) [13] | Hepatotoxicity (steatosis) [14] | Hepatotoxicity (malignant tumour) [15] | Hepatotoxicity (benign tumour) [16] | other results |
| --- | --- | --- | --- | --- | --- | --- | --- | --- | --- | --- | --- | --- | --- | --- | --- | --- | --- |
| CCC1(c2ccc(N)cc2)CCC(=O)NC1=O (stereo not given) [AMINOGLUTETHIMIDE] | 67 | 0 | yes | 1 day - 10 weeks | 4 | 4 | 2 | 3 | 0 | 0 | 0 | 0 | 0 | 0 | 0 | 0 |  |
| CCN(CC)CCCN(c1ccccc1)C1Cc2ccccc2C1 [APRINDINE] | 1 | 0.1 | yes | 5 days - 2 months | 1 | 9 | 4 | 7 | 0 | 0 | 0 | 1 | 0 | 0 | 0 | 0 |  |
| O=C1C(O)=C([C@H]2CC[C@H](c3ccc(Cl)cc3)CC2)C(=O)c2ccccc21 [ATOVAQUONE] | 16 | 5.3 | yes | 10 days - 6 weeks | 9 | 2 | 2 | 0 | 0 | 0 | 0 | 0 | 0 | 0 | 0 | 0 |  |
| CCc1oc2ccccc2c1C(=O)c1cc(Br)c(O)c(Br)c1 [BENZBROMARONE] | 0 | 0 | yes | 1.5 months - 5 months | 1 | 5 | 5 | 0 | 4 | 0 | 0 | 0 | 0 | 0 | 0 | 0 |  |
| O=C(CCCN1CCC(O)(c2ccc(Br)cc2)CC1)c1ccc(F)cc1 [BROMPERIDOL] | 0 | 0 | yes | 2 weeks - 6 weeks | 0 | 1 | 0 | 0 | 0 | 0 | 0 | 0 | 0 | 0 | 0 | 0 |  |
| Cc1ncsc1CCCl [CLOMETHIAZOLE] | 0 | 0 | yes | 3 days - 40 days | 1 | 3 | 3 | 1 | 2 | 0 | 0 | 0 | 0 | 0 | 0 | 0 |  |
| COc1ccc2c3c1O[C@H]1[C@@H](O)C=C[C@H]4[C@@H](C2)N(C)CC[C@@]341 [CODEINE] |  |  | yes | < 1 hour - 1.5 hours | 2 | 3 |  |  |  | 0 | 0 |  | 0 | 0 | 0 | 0 | Hepatotoxicity (moderate) ([1]; Liver): 0%; Hepatotoxicity (acute) ([2]; Liver): 0%; Hepatotoxicity (cytolytic) ([7]; Liver): 2; Hepatotoxicity (choleostasis) ([8]; Liver): 0; Hepatotoxicity (severe hepatitis) ([9]; Liver): 0; Hepatotoxicity (granulomatous hepatitis) ([12]; Liver): 1 |
| CC(=O)Oc1ccc(C(=C2CCCCC2)c2ccc(OC(C)=O)cc2)cc1 [CYCLOFENIL] | 55.6 | 1.3 | yes | 1 month - 5 months | 8 | 5 | 3 | 2 | 0 | 0 | 0 | 1 | 1 | 0 | 0 | 0 |  |
| NCCS [CYSTEAMINE] | 0 | 0 | yes | 2 weeks - 2 years | 0 | 1 | 1 | 0 | 0 | 0 | 0 | 0 | 1 | 0 | 0 | 0 |  |
| CN(C)CC[C@@H](c1ccc(Cl)cc1)c1ccccn1 [DEXCHLORPHENIRAMINE] |  |  | yes | 9 days | 0 | 1 | 1 | 0 |  | 0 | 0 | 0 | 0 | 0 | 0 | 0 | Hepatotoxicity (moderate) ([1]; Liver): 0%; Hepatotoxicity (acute) ([2]; Liver): 0%; Hepatotoxicity (severe hepatitis) ([9]; Liver): 0 |
